The assay has as its target T1, cellular PARG (Homo sapiens, UniProt Q86W56).
T1 construct: endogenous in cells; host or cells: HeLa
Nature of the assay: Nuclear PAR accumulation assay (immunofluorescence high-content imaging, MMS-treated HeLa cells). Format: cell-based. The note with it: 1 hour compound then MMS 50 μg/mL for an additional hour. The procedure, abridged:
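HeLa cells pretreated with compound for 1 h at 37° C, then given 50 μg/mL MMS for another hour. After methanol fixation, PAR was immunostained with DAPI nuclear counterstain; per-nucleus intensity and percent PAR-positive cells were imaged at 20× (≥1,000 cells/well). IC50 from four-parameter logistic fit.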

Structures are written as SMILES.

T1 sequence (Q86W56 whole entry): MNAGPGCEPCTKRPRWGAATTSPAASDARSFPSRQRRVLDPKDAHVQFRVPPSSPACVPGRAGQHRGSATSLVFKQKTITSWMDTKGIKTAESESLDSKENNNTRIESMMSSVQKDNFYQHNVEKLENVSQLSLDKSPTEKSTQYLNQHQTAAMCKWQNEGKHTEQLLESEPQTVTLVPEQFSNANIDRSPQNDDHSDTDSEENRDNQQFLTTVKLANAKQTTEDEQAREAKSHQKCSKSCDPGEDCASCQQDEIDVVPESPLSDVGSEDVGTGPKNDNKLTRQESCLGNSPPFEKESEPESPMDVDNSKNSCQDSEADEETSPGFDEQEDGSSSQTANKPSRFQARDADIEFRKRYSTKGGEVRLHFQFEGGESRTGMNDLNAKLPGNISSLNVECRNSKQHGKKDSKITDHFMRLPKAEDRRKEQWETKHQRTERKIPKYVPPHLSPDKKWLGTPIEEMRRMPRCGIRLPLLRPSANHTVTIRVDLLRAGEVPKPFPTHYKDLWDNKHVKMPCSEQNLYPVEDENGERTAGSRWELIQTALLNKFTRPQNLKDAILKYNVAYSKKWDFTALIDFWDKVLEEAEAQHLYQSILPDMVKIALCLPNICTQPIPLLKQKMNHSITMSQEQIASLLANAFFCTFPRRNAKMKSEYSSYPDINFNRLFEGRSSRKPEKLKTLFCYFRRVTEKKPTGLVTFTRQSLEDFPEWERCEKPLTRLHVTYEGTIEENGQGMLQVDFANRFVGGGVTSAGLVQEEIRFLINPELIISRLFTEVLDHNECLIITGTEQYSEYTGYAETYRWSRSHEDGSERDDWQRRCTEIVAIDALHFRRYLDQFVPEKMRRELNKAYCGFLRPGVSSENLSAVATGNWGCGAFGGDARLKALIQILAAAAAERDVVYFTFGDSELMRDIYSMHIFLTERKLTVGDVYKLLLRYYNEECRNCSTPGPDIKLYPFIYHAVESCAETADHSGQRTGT

What is called IC50 is the midpoint of a concentration-inhibition curve. Take `[2H]C([2H])(c1cnn(C)c1)N1C(=O)c2cc(S(=O)(=O)NC3(C)CC3)cc(Cl)c2N2C1=NC[C@H]2C#C` [Example 111, (R)-9-chloro-1-ethynyl-4-((1-methyl-1H-pyrazol-4-yl)methyl-d2)-N-(1-methylcyclopropyl)-5-oxo-1,2,4,5-tetrahydroimidazo[1,2-a]quinazoline-7-sulfonamide]: the IC50 was below 0.1 µM.
On to `[2H]C([2H])(c1cnn(C)c1)N1C(=O)c2cc(S(=O)(=O)NC3(C)CC3)ccc2N2C1=NC[C@H]2C#CC1(N(C)C)CC1` [Example 112, (R)-1-((1-(dimethylamino)cyclopropyl)ethynyl)-4-((1-methyl-1H-pyrazol-4-yl)methyl-d2)-N-(1-methylcyclopropyl)-5-oxo-1,2,4,5-tetrahydroimidazo[1,2-a]quinazoline-7-sulfonamide], for which the half-maximal inhibitory concentration (IC50) was below 0.1 µM.
Next, `[2H]C([2H])(c1cnn(C)c1)N1C(=O)c2cc(S(=O)(=O)NC3(C)CC3)ccc2N2C1=NC[C@H]2CSC` [Example 113, (S)-4-((1-methyl-1H-pyrazol-4-yl)methyl-d2)-N-(1-methylcyclopropyl)-1-((methylthio)methyl)-5-oxo-1,2,4,5-tetrahydroimidazo[1,2-a]quinazoline-7-sulfonamide]: below 0.1 µM.
Next, `[2H]C([2H])(c1cnn(C)c1)N1C(=O)c2cc(S(=O)(=O)NC3(C)CC3)ccc2N2C1=NC[C@H]2COCCN(C)C` [Example 114, (S)-1-((2-(dimethylamino)ethoxy)methyl) -4-((1-methyl-1H-pyrazol-4-yl)methyl-d2)-N-(1-methylcyclopropyl)-5-oxo-1,2,4,5-tetrahydroimidazo[1,2-a]quinazoline-7-sulfonamide]: 0.1 to 1 µM.
With `Cn1cc(CN2C(=O)c3cc(S(=O)(=O)NC4(C)CC4)ccc3N3C2=NC[C@H]3COC2CC2)cn1` [Example 115, (S)-1-(cyclopropoxymethyl)-4-((1-methyl-1H-pyrazol-4-yl)methyl)-N-(1-methylcyclopropyl)-5-oxo-1,2,4,5-tetrahydroimidazo[1,2-a]quinazoline-7-sulfonamide], the half-inhibitory concentration (IC50) was below 0.1 µM.
The compound `Cn1cc(CN2C(=O)c3cc(S(=O)(=O)NC4(C)CC4)ccc3N3C2=NC[C@H]3C#Cc2ccncc2)cn1` [Example 116, (R)-4-((1-methyl-1H-pyrazol-4-yl)methyl)-N-(1-methylcyclopropyl)-5-oxo-1-(pyridin-4-ylethynyl)-1,2,4,5-tetrahydroimidazo[1,2-a]quinazoline-7-sulfonamide] gave an IC50 below 0.1 µM.
With `Cn1cc(CN2C(=O)c3cc(S(=O)(=O)NC4(C)CC4)ccc3N3C2=NC[C@H]3C#Cc2cccnc2)cn1` [Example 117, (R)-4-((1-methyl-1H-pyrazol-4-yl)methyl)-N-(1-methylcyclopropyl)-5-oxo-1-(pyridin-3-ylethynyl)-1,2,4,5-tetrahydroimidazo[1,2-a]quinazoline-7-sulfonamide], the IC50 is below 0.1 µM.
Next, `Cn1cc(CN2C(=O)c3cc(S(=O)(=O)NC4(C)CC4)ccc3N3C2=NC[C@H]3C2CCC2)cn1` [Example 118, (R)-1-cyclobutyl-4-((1-methyl-1H-pyrazol-4-yl)methyl)-N-(1-methylcyclopropyl)-5-oxo-1,2,4,5-tetrahydroimidazo[1,2-a]quinazoline-7-sulfonamide]: below 0.1 µM; `Cc1nc([C@@H]2CN=C3N(Cc4cnn(C)c4)C(=O)c4cc(S(=O)(=O)NC5(C)CC5)ccc4N32)co1` [Example 119, (S)-4-((1-methyl-1H-pyrazol-4-yl)methyl)-N-(1-methylcyclopropyl)-1-(2-methyloxazol-4-yl)-5-oxo-1,2,4,5-tetrahydroimidazo[1,2-a]quinazoline-7-sulfonamide]: 0.1 to 1 µM.
Under `CN1C(=O)c2cc(S(=O)(=O)NC3(C)CC3)ccc2N2C1=NC[C@H]2C#Cc1cn(C)nc1F` [Example 120, (R)-1-((3-fluoro-1-methyl-1H-pyrazol-4-yl)ethynyl)-4-methyl-N-(1-methylcyclopropyl)-5-oxo-1,2,4,5-tetrahydroimidazo[1,2-a]quinazoline-7-sulfonamide] stands below 0.1 µM; under `Cc1ncc([C@@H]2CN=C3N(Cc4cnn(C)c4)C(=O)c4cc(S(=O)(=O)NC5(C)CC5)ccc4N32)s1` [Example 121, (S)-4-((1-methyl-1H-pyrazol-4-yl)methyl)-N-(1-methylcyclopropyl)-1-(2-methylthiazol-5-yl)-5-oxo-1,2,4,5-tetrahydroimidazo[1,2-a]quinazoline-7-sulfonamide], below 0.1 µM; under `CCC[C@@H]1CN=C2N(Cc3cnn(C)c3)C(=O)c3cc(S(=O)(=O)NC4(C)CC4)ccc3N21` [Example 122, (R)-4-((1-methyl-1H-pyrazol-4-yl)methyl)-N-(1-methylcyclopropyl)-5-oxo-1-propyl-1,2,4,5-tetrahydroimidazo[1,2-a]quinazoline-7-sulfonamide], below 0.1 µM.
Under `C[C@@H]1CN=C2N(C)C(=O)c3cc(S(=O)(=O)NC4(C)CC4)cc(N4CCC5(CC4)COC5)c3N21` [Example 123, (R)-1,4-dimethyl-N-(1-methylcyclopropyl)-5-oxo-9-(2-oxa-7-azaspiro[3.5]nonan-7-yl)-1,2,4,5-tetrahydroimidazo[1,2-a]quinazoline-7-sulfonamide] stands below 0.1 µM; under `Cn1cc(CN2C(=O)c3cc(S(=O)(=O)NC4(C)CC4)ccc3N3C2=NC[C@H]3C#CC2(N)CC2)cn1` [Example 124, (R)-1-((1-aminocyclopropyl)ethynyl)-4-((1-methyl-1H-pyrazol-4-yl)methyl)-N-(1-methylcyclopropyl)-5-oxo-1,2,4,5-tetrahydroimidazo[1,2-a]quinazoline-7-sulfonamide], below 0.1 µM.
As for `COC1(C(=O)N2CCN(c3cc(S(=O)(=O)NC4(C)CC4)cc4c3N3C(=NC[C@H]3C)N(C)C4=O)CC2)CC1` [Example 125, (R)-9-(4-(1-methoxycyclopropane-1-carbonyl)piperazin-1-yl)-1,4-dimethyl-N-(1-methylcyclopropyl)-5-oxo-1,2,4,5-tetrahydroimidazo[1,2-a]quinazoline-7-sulfonamide], the IC50 was below 0.1 µM.
Under `C[C@@H]1CN(c2cc(S(=O)(=O)NC3(C)CC3)cc3c2N2C(=NC[C@H]2C)N(C)C3=O)C[C@@H](C)O1` [Example 126, (R)-9-((2R,6R)-2,6-dimethylmorpholino)-1,4-dimethyl-N-(1-methylcyclopropyl)-5-oxo-1,2,4,5-tetrahydroimidazo[1,2-a]quinazoline-7-sulfonamide] stands 0.1 to 1 µM; under `CNC1(C#C[C@@H]2CN=C3N(Cc4cnn(C)c4)C(=O)c4cc(S(=O)(=O)NC5(C)CC5)ccc4N32)CC1` [Example 127, (R)-4-((1-methyl-1H-pyrazol-4-yl)methyl)-1-((1-(methylamino)cyclopropyl)ethynyl)-N-(1-methylcyclopropyl)-5-oxo-1,2,4,5-tetrahydroimidazo[1,2-a]quinazoline-7-sulfonamide], below 0.1 µM; under `Cn1cc(CN2C(=O)c3cc(S(=O)(=O)NC4(C)CC4)ccc3N3C2=NC[C@H]3CCC#N)cn1` [Example 128, (R)-1-(2-cyanoethyl)-4-((1-methyl-1H-pyrazol-4-yl)methyl)-N-(1-methylcyclopropyl)-5-oxo-1,2,4,5-tetrahydroimidazo[1,2-a]quinazoline-7-sulfonamide], 0.1 to 1 µM.
The compound `CN1C(=O)c2cc(S(=O)(=O)NC3(C)CC3)ccc2N2C1=NC[C@H]2C#CC1(N(C)C)CC1` [Example 129, (R)-1-((1-(dimethylamino)cyclopropyl)ethynyl)-4-methyl-N-(1-methylcyclopropyl)-5-oxo-1,2,4,5-tetrahydroimidazo[1,2-a]quinazoline-7-sulfonamide] had a half-inhibitory concentration (IC50) below 0.1 µM.
In turn, `CN1C(=O)c2cc(S(=O)(=O)NC3(C)CC3)ccc2N2C1=NC[C@H]2C#Cc1cnn(C)c1` [Example 130, (R)-4-methyl-1-((1-methyl-1H-pyrazol-4-yl)ethynyl)-N-(1-methylcyclopropyl)-5-oxo-1,2,4,5-tetrahydroimidazo[1,2-a]quinazoline-7-sulfonamide] displayed a half-maximal inhibitory concentration (IC50) below 0.1 µM.
Next, `[2H]C([2H])(c1cnn(C)c1)N1C(=O)c2cc(S(=O)(=O)NC3(C)CC3)ccc2N2C1=NCC2CNc1ccccn1` (stereo not shown) [Example 131, 4-((1-methyl-1H-pyrazol-4-yl)methyl-d2)-N-(1-methylcyclopropyl)-5-oxo-1-((pyridin-2-ylamino)methyl)-1,2,4,5-tetrahydroimidazo[1,2-a]quinazoline-7-sulfonamide]: 1 to 10 µM; `Cn1cc(CN2C(=O)c3cc(S(=O)(=O)NC4(C)CC4)ccc3N3C2=NCC3C#Cc2ccncn2)cn1` (stereo not shown) [Example 132, 4-((1-methyl-1H-pyrazol-4-yl)methyl)-N-(1-methylcyclopropyl)-5-oxo-1-(pyrimidin-4-ylethynyl)-1,2,4,5-tetrahydroimidazo[1,2-a]quinazoline-7-sulfonamide]: 0.1 to 1 µM; `CN1C(=O)c2cc(S(=O)(=O)NC3(C)CC3)ccc2N2C1=NCC2C#Cc1ccc2cnn(C)c2c1` (stereo not shown) [Example 133, 4-methyl-1-((1-methyl-1H-indazol-6-yl)ethynyl)-N-(1-methylcyclopropyl)-5-oxo-1,2,4,5-tetrahydroimidazo[1,2-a]quinazoline-7-sulfonamide]: below 0.1 µM.
`CN1C(=O)c2cc(S(=O)(=O)NC3(C)CC3)ccc2N2C1=NCC2C#Cc1cncc(C#N)c1` (stereo not shown) [Example 134, 1-((5-cyanopyridin-3-yl)ethynyl)-4-methyl-N-(1-methylcyclopropyl)-5-oxo-1,2,4,5-tetrahydroimidazo[1,2-a]quinazoline-7-sulfonamide] came in with an IC50 below 0.1 µM.
`Cn1cc(CN2C(=O)c3cc(S(=O)(=O)NC4(C)CC4)ccc3N3C2=NCC3COc2ccc(C#N)cc2)cn1` (stereo not shown) [Example 135, 1-((4-cyanophenoxy)methyl)-4-((1-methyl-1H-pyrazol-4-yl)methyl)-N-(1-methylcyclopropyl)-5-oxo-1,2,4,5-tetrahydroimidazo[1,2-a]quinazoline-7-sulfonamide] had an IC50 of 0.1 to 1 µM.

Source of the values: patent publication US20260285875A1, “INHIBITORS OF PARG” (858 Therapeutics, Inc., priority 2023, published 2026).
